The results in this text go back to patent publication US20120012123A1, “COMPOSITIONS, ARTICLES AND METHODS FOR PREVENTING OR REDUCING TOBACCO-ASSOCIATED DAMAGE” (Technion Research & Development Foundation Ltd., priority 2007, published 2012).

The test system of assay [1] is H1299 lung cancer cells. Description: Mitochondrial membrane potential (ΔΨm), JC-1 incorporation by flow cytometry. The note with it: 5 mM agent. In kind it is cell-based, human. On the procedure: (§1) For mitochondrial oxidative damage, pellets were re-suspended in 0.5 ml of 10 μg/ml 10-N-nonyl acridine orange (NAO) and incubated for 30 minutes at 37° C. and dark condition. Mitocondrial membrane potential was measured after staining cells with 1 μg/ml JC-1 (5,5′,6,6′-tetrachloro-1,1′,3,3′-tetraethylbenzimidazolyl carbocyanine iodide; Molecular Probes) for 30 minutes at 37° C. in the dark. Uncoupling with carbonyl cyanide p-trifluoromethoxyphenylhydrazone (FCCP) (20 µM for 30 minutes) was used as positive control.
Mitochondrial membrane permeabilization is an essential step leading to apoptosis. Disruption of ΔΨm irreversibly commits cells to undergo death and is an early marker of apoptosis. Furthermore, cigarette smoke was previously shown to induce mitochondrial depolarization in human monocytes. Therefore, reduced ΔΨm, as measured by diminished incorporation of the fluorescent dye JC-1, was used as an early indicator for CS-induced apoptosis.
H1299 lung cancer calls were exposed for 120 minutes to CS with or without saliva. […] JC-1 incorporation was measured by flow cytometry method.
A general note: A flow cytometer gives signals particle by particle.

Assay [2] has as its system H1299 human lung cancer cells. Description: H1299 cells survival after cigarette smoke (CS) exposure with/without saliva, Trypan Blue exclusion test. It is filed as cell-based.
Method: During smoke exposure, the cells were put into a smoking sealed chamber (33.5 cm^3) with CS pressure of 0.3 Bar. Control cells were subjected to the same procedures, but exposed only to fresh air. Cells were exposed to CS for one “puffs” every 15 minute for a 2 hours (120 minutes) period (unless indicated otherwise). Cells were used when it becomes confluent and the medium (with/without saliva) volume was compatibly to the dish in use.
The H1299 cells viability was measured at various time points by Trypan Blue exclusion test, both in exposed and control cells.
The medium covering the dish was collected and cells were trypsinized and centrifuged at 1200×g for 10 minutes. Cell pellets were re-suspended in 1 mL of medium and a sample was collect for cell counting. Cells were stained with the vital dye Trypan Blue at final concentration of 0.25% and were placed on hemocytometer. Visual counting was preformed by inverted microscope.
H1299 cells were incubated for 120 minutes with or without the presence of saliva in the culture medium and exposed to CS. […] Cell viability was evaluated by Trypan blue exclusion dye assay.
The subject of assay [3] is H1299 lung cells. Description: Mitochondrial oxidative damage, NAO binding to cardiolipin by flow cytometry. In kind it is cell-based, human. To be noted: 5 mM agent, 120 minutes of CS exposure (FIG. 15). On the procedure:
as §1
The mitochondrial quality is the amount of all the intra-cellular mitochondria and their content, and it is an important index of mitochondrial injury. Nonyl-Acridine Orange (NAO) is a fluorescent dye that can bind specifically to unoxidizable cardiolipin (CL), a mitochondrial phospholipid, independent of the mitochondria energetic state (ΔΨm). NAO lost its affinity for CL with a hydroperoxide fatty acid (CL-OOH).
NAO flow cytometry was used to measure the quality of H1299 lung cells exposed for 120 minutes to CS with or without saliva.

Assay [4] deals with H1299 cells. Description: Protein carbonyl assay (ELISA) on H1299 cells exposed to CS. It is filed as cell-based, human. To be noted: 5 mM PenA. On the procedure: Protein carbonyl concentration was determined by enzyme-linked immunosorbent assay (ELISA), using the Zentech PC Test Kit (Zenith Technology, Dunedin, New Zealand). Briefly, protein cell extractions were allowed to react with a dinitrophenylhydrazine (DNP) solution (200 μl). The DNP-reacted proteins bound non-specifically to an ELISA plate, and the unconjugated DNP and non-protein entities were washed away. The adsorbed DNP-protein was then probed with an anti-DNP-biotin antibody, followed by a streptavidin-linked HRP probe. Then the […] reagent that contained peroxide was added to catalyze the oxidation of TMB. Finally, the reaction was stopped by the addition of a stopping reagent (acid, provided with the kit), and the absorbance was measured for each well at 450 nm using a spectrophotometer. Along with controls and samples, protein carbonyl standards were also included in the assay. The content of the carbonyl protein in the mitochondrial samples was determined as pmol/mg protein, using the standard curve.

Assay [5] concerns oral cancer cells (SCC-25). The assay is described as follows: Oral cancer cells (SCC-25) survival after CS exposure with/without saliva, Trypan blue assay. In kind it is cell-based. The note with it: 5 mM PenA, CS 120 minutes. From the text: In FIG. 18A, (n=14) and (p=0.0024) and in […], (n=7) and (p=0.015).
Similar results were obtained with oral cancer cells (SCC-25).

Assay [6] relates to H1299 cells. Description: Cell viability by Propidium Iodide (PI) fluorescence, flow cytometry, after CS exposure. In kind it is cell-based, human. To be noted: mean ± SD, n = 4. On the procedure: FACS was used to monitor cell-cycle and cell-viability after CS exposure with/without saliva presence. After cells were exposed to ROS attack, medium covering the cells was removed and cells were trypsinized. For cell viability, cell suspension was centrifuged at 1200×g for 10 minutes and the pellets were re-suspended in 0.5 ml of 10 μg/ml Propidium iodide (PI) and incubated for 15 minutes at dark condition, 4° C. The cell suspensions were thereafter analyzed with a flow cytometer, using CellQuest software. […] PI is excluded by viable cells, and penetrates to cell membranes of dead cells. H1299 cells were incubated for 120 minutes with or without the presence of saliva in the culture medium and exposed to CS. […] Cell viability was evaluated by fluorescence assay.

For assay [7], the system named is p53. Description: Total p53 expression levels, Western blot analysis. In kind it is cell-based, human. To be noted: 2 mM GSH, exposure of CS 120 minutes and 33% saliva (FIG. 17). (In general: Immunoblotting shows a protein as a band on a membrane.)
Method: Western blot analysis was used to assay the protein expression levels of the P53, using β-actin signal as a loading reference. Samples with equal amount of protein (20 μg protein/lane) were prepared in 2× sample buffer (0.125 M 2-amino-2-(hydroxymethyl)propane-1,3-diol (Tris)-HCl, pH 6.8, glycerol (20% v/v), SDS (4% w/v), 0.14 M β-mercaptoethanol and bromophenol blue (0.005% w/v)). The samples were boiled for 10 minutes and subjected to electrophoresis through 12% SDS-polyacrylamide gel in running buffer, or stored at −20° C. until further use. The gels were then electrophoretically transferred to nitrocellulose membranes for 90 minutes at 90 W, in transfer buffer containing 20 mM Tris-HCl, pH 6.8, 150 mM Glycine and 20% (v/v) methanol. Blots were blocked in 5% non-fat milk in PBS-T (62.5 mM sodium phosphate buffer, pH 7.4, containing 100 mM NaCl and 0.1% (v/v) Tween-20) and then incubated for 2 hours or overnight at 4° C. with rabbit antihuman p53 1:5000 or mouse antihuman β-actin 1:15000. […] Binding of antibodies to the membrane was detected with an EZ-ECL-detection reagent, X-Omat blue XB-1 Kodak scientific Imaging Film for 10 seconds-15 minutes.
The effect of CS on p53 accumulation was analyzed. […] Western blot analysis was performed and the amount of p53 was evaluated.

Turning to `CC(C)(S)[C@@H](N)C(=O)O` [PenA, D-penicillamine], the “protection against ΔΨm losses (in words)” value in assay [1] (CS 120 minutes alone, no saliva (FIG. 14)) was “strong protection”; in assay [1] (CS 120 minutes and 33% saliva (FIG. 14)), “no significant change”. In assay [2] (1 mM and 5 mM PenA, CS exposure, medium or medium + 30% saliva (FIG. 7)), the “effect on survival rate, 1 mM versus 5 mM (in words)” value was “dose-dependent effect”. Further, the “reduction of cells loss” value in assay [2] (5 mM PenA, 120 minutes of exposure to CS, medium without saliva) came out at 25%. In addition, the survival rate in assay [2] (5 mM PenA, CS 120 minutes, medium + 30% saliva (FIG. 7)) was 76.4%; in assay [2] (5 mM PenA, CS 120 minutes, medium alone, no saliva (FIG. 7)), 75.5%. Besides, the “reduction of cells loss (in words)” value in assay [2] (5 mM PenA, saliva supplemented to the medium prior to exposure to CS) is given as “Reduction of cells loss was also observed”. Also, in assay [2] (PenA, CS 120 minutes, medium alone, percent of control (FIG. 6A)), the “increase of cells survival” value is listed as 12%. Besides, the “increase of cell survival” value in assay [2] (PenA, CS 120 minutes, saliva-containing medium (30% v/v), percent of control (FIG. 6A)) came to 20%. For the same molecule, in assay [3], the “amount of NAO bound to mitochondrial CL (in words)” value is “the same”. Also, the protein carbonyl content in assay [4] (CS 60 minutes and saliva (FIG. 11)) turned out to be 4.02 nmol/mg protein; in assay [4] (CS 60 minutes, medium alone (FIG. 11)), 4.45 nmol/mg protein. Further, the figures for the survival loss in assay [5] (absence of saliva (FIG. 18A)) and in assay [5] (saliva added to medium (FIG. 18B)) were 23% and 22%, respectively. For the same molecule, the “Positive dead cells (%)” value is 2.33% in assay [6] (CS 120 minutes + 5 mM PenA + saliva); 2.98% in assay [6] (CS 120 minutes + 5 mM PenA, no saliva); 4.15% in assay [6] (Medium + 5 mM PenA + saliva, no CS); 3.75% in assay [6] (Medium + 5 mM PenA, no CS, no saliva).
For the molecule `CC(=O)N(O)CCCCCNC(=O)CCC(=O)N(O)CCCCCNC(=O)CCC(=O)N(O)CCCCCN` [DES, deferoxamine], in assay [2] (5 mM DES, CS 120 minutes and saliva (FIG. 12)), the cellular death rate is 20.5%.
Take `N[C@@H](CCC(=O)N[C@@H](CS)C(=O)NCC(=O)O)C(=O)O` [GSH, L-c-glutamyl-L-cysteinyl-glycine]: the “prevention of p53 downregulation (in words)” value in assay [7] is listed as “totally preventing”. The “protection of cell survival (in words)” value in assay [2] (2 mM GSH, CS exposure alone, no saliva) is given as “no additional protection”. The “increase of cell survival” value in assay [2] (2 mM GSH, CS exposure, saliva-containing medium (30% v/v) (FIG. 9)) is on record as “more than 50%”.
